Assay: Solubility of thermal acid generators in organic solvents (super-saturated solution, shaken 16 hours, filtered, solid content by Thermal Gravimetric Analysis)
Type: physicochemical
Details: room temperature, TGA; for Solubility in HBM (solid content of filtered solution): 2-hydroxyisobutyric acid methyl ester (HBM); for Solubility in EL (solid content of filtered solution): ethyl lactate (EL); for Solubility in PGME (solid content of filtered solution): propylene glycol methyl ether (PGME)

With `Cc1ccccn1` [Example 1, 2-methylpyridin-1-ium 4-methylbenzenesulfonate] the “Solubility in HBM (solid content of filtered solution)” value was 20 wt. %, the “Solubility in EL (solid content of filtered solution)” value was 29 wt. % and the “Solubility in PGME (solid content of filtered solution)” value was 27 wt. %.
With `COc1ccncc1` [Example 2, 4-methoxypyridin-1-ium 4-methylbenzenesulfonate] the “Solubility in HBM (solid content of filtered solution)” value was 18 wt. %, the “Solubility in EL (solid content of filtered solution)” value was 32 wt. % and the “Solubility in PGME (solid content of filtered solution)” value was 26 wt. %.

Source: patent publication US11448964B2, “Coating compositions for use with an overcoated photoresist” (Rohm and Haas Electronic Materials Korea Ltd., priority 2016, dated 2022)
